Values joined by “and” are separate entries in the source; they are usually repeats but may differ in a detail not shown here. Equal values may be shown once.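 Interpolation was linear, between the two tested concentrations surrounding the appropriate level; five concentrations were tested over 48 hours in 96-well plates. Here, GI50 denotes the concentration required for 50% inhibition of growth. TGI marks complete inhibition of growth.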
Columns and labels:
Experiment in all cases: inhibition of tumour cell growth, NCI panel, 48 h
HCT-15 colon = tested on: HCT-15 colon
LOX IMVI melanoma = tested on: LOX IMVI melanoma
SN12C renal = tested on: SN12C renal
A549 NSCLC = tested on: A549 NSCLC
SNB-19 CNS = tested on: SNB-19 CNS
SW-620 colon = tested on: SW-620 colon
SNB-75 CNS = tested on: SNB-75 CNS
UACC-257 melanoma = tested on: UACC-257 melanoma
HT29 colon = tested on: HT29 colon
SK-OV-3 ovarian = tested on: SK-OV-3 ovarian

| SMILES | TGI (HCT-15 colon) | TGI (LOX IMVI melanoma) | TGI (SN12C renal) | TGI (A549 NSCLC) | TGI (SNB-19 CNS) | TGI (SW-620 colon) | TGI (SNB-75 CNS) | TGI (UACC-257 melanoma) | TGI (HT29 colon) | TGI (SK-OV-3 ovarian) | GI50 (HCT-15 colon) [µM] | GI50 (LOX IMVI melanoma) [µM] | GI50 (SN12C renal) [µM] | GI50 (A549 NSCLC) [µM] | GI50 (SNB-19 CNS) [µM] | GI50 (SW-620 colon) [µM] | GI50 (SNB-75 CNS) [µM] | GI50 (UACC-257 melanoma) [µM] | GI50 (SK-OV-3 ovarian) [µM] | GI50 (HT29 colon) [µM] |
| --- | --- | --- | --- | --- | --- | --- | --- | --- | --- | --- | --- | --- | --- | --- | --- | --- | --- | --- | --- | --- |
| CC(=O)/C(=C/n1c(=S)[nH]c2ccccc21)C(=O)Nc1ccccc1C | > 100 µM | > 100 µM | > 100 µM | > 100 µM | > 100 µM | > 100 µM | > 100 µM | > 100 µM | > 100 µM | > 100 µM |  |  |  |  |  |  |  |  |  |  |
| CC(=O)NNc1nc(C)c(C(=O)NNC(=O)C(=O)Nc2c(C)cccc2C)s1 | > 100 µM | > 100 µM | > 100 µM | > 100 µM | > 100 µM | > 100 µM | > 100 µM | > 100 µM | > 100 µM | > 100 µM |  |  |  |  |  |  |  |  |  |  |
| CCCCc1c2c(nc3c1CCc1cc4cc5c(nc4nc1-3)-c1nc3c(c(CCCC)c1CC5)CCCC3)CCCC2 | > 100 µM | > 100 µM | > 100 µM | > 100 µM | > 100 µM | > 100 µM | > 100 µM | > 100 µM | 31.5 µM | > 100 µM |  |  |  |  |  |  |  |  |  |  |
| CCOC(=O)C1=C(C(=O)c2ccc(C)cc2)C(c2cccc([N+](=O)[O-])c2)C(C(=O)c2ccc(C)cc2)=C(C(=O)OCC)N1 | 6.13 µM | 31.4 µM | 32.4 µM | 66.1 µM | 25.9 µM | 27.1 µM | > 100 µM | 41.4 µM | 28.7 µM | 27.9 µM |  |  |  |  |  |  |  |  |  |  |
| CCCNCCCC(NC(C)=O)C(=O)NCc1ccccc1 (centres undefined) | > 100 µM | > 100 µM | > 100 µM | > 100 µM | > 100 µM | > 100 µM | > 100 µM | > 100 µM | > 100 µM | > 100 µM |  |  |  |  |  |  |  |  |  |  |
| CCCC(=O)Nc1cc(C(=O)N2C[C@@H]3C[C@]34C2=CC(=O)c2[nH]cc(C)c24)n(COC)c1 | 50 µM and 33.3 µM | 30 µM and 7.17 µM | 31.7 µM and 16.1 µM | 40.7 µM and 47.9 µM | 50 µM and 14.5 µM | 50 µM and 19.9 µM | 17.7 µM and 12.3 µM | 32.4 µM and 6.62 µM | 24.6 µM and 29 µM | 43.8 µM and 17.9 µM | 13.9 | 2.06 | 4.45 | 16.6 | 3.36 | 2.7 | 2.99 | 3.03 | 4.32 |  |
| COc1ccccc1/C=C/[N+](=O)[O-] | 6.98 µM | 2.86 µM | 8.03 µM | 10.4 µM | 19 µM | 3.19 µM | 44.5 µM | 4.32 µM | 3.85 µM | 17.7 µM | 2.32 | 1.4 | 2.47 | 3 | 4.85 | 1.56 | 3.57 | 1.84 | 5.81 | 2.01 |
| CCOC(=O)/C(O)=C/c1cc(OC)cc(=O)o1 | > 100 µM | > 100 µM | > 100 µM | > 100 µM | > 100 µM | > 100 µM | > 100 µM | > 100 µM | > 100 µM | > 100 µM |  |  |  |  |  |  |  |  |  |  |
| COc1ccccc1N=C(N)N/N=C/c1c[nH]c2ccccc12 | 15.7 µM | 22.6 µM | 22.7 µM | 26.6 µM | 28.6 µM | 10.4 µM | 25.4 µM | 11.7 µM | 14.9 µM | 31.7 µM |  |  |  |  |  |  |  |  |  |  |
| O=C(Nc1ccc(F)cc1)c1ccc(NC2=C(Cl)C(=O)N(Cc3ccccc3)C2=O)cc1 | 49.4 µM | 25.2 µM | 16.4 µM | 39 µM | 41.3 µM | > 100 µM | 37.4 µM | 56 µM | > 100 µM | 68 µM | 13.3 | 11.3 | 4.12 | 8.68 | 10.8 | 4.54 | 15.9 | 19.8 | 24 | 13.1 |
| O=C(O)[C@@H]1[C@H](C(=O)O)[C@H](C(=O)O)C[C@@H]1C(=O)O | > 100 µM | > 100 µM | > 100 µM | > 100 µM | > 100 µM | > 100 µM | > 100 µM | > 100 µM | > 100 µM | > 100 µM |  |  |  |  |  |  |  |  |  |  |
| Cc1c(S(C)(=O)=O)c(-c2cc(F)cc(N3CCN(c4ccc(NS(=O)(=O)c5ccc(N[C@H](CCN6CCC(C(=O)OCCCP(=O)(O)O)CC6)CSc6ccccc6)c(S(=O)(=O)C(F)(F)F)c5)cc4)CC3)c2)c(-c2ccc(Cl)cc2)n1C(C)C | > 100 µM | > 100 µM | > 100 µM | > 100 µM | > 100 µM | > 100 µM | > 100 µM | > 100 µM | > 100 µM | > 100 µM | > 100 | > 100 | > 100 | > 100 | 68.1 | > 100 | > 100 | > 100 | > 100 | > 100 |
| Nc1nc2c(c(=O)[nH]1)NC(CO)CN2 (centres undefined) | > 100 µM | 36.7 µM | > 100 µM | > 100 µM | > 100 µM | > 100 µM | > 100 µM | 64.3 µM | > 100 µM | > 100 µM |  |  |  |  |  |  |  |  |  |  |
| O=C1C=C(NCCNC(=S)Nc2ccccc2)c2nccc3c2c1nc1ccccc13 | > 100 µM | > 100 µM | > 100 µM | > 100 µM | > 100 µM | > 100 µM | > 100 µM | > 100 µM | > 100 µM | > 100 µM | 34.9 | 31.5 | 23.5 | 44.7 | > 100 | 32.2 | > 100 | 93.2 | > 100 | 44.6 |
| CCc1n(Cc2ccc3ccccc3n2)cc[n+]1Cc1ccc2ccccc2n1 | > 100 µM | 13.2 µM | 7.75 µM | > 100 µM | 10.7 µM | 30.2 µM | 2.4 µM | 0.695 µM | 12 µM | 15.1 µM | 65.7 | 0.596 | 0.317 | 5.27 | 0.0687 | 1.39 | 0.141 | 0.0796 | 1.39 | 0.263 |
| Cc1ccc(S(=O)(=O)NCCNC2=CC(=O)c3nc4ccccc4c4ccnc2c34)cc1 | 48.1 µM | 42.4 µM | 39.6 µM | 44.5 µM | 33.9 µM | 97.2 µM | 41.3 µM | 54.3 µM | 79.1 µM | > 100 µM | 16.2 | 16.6 | 17.8 | 15.2 | 13.8 | 19.6 | 18.3 | 19.5 | 33.1 | 32.5 |

Source: PubChem BioAssay (NCI)
